According to patent US4029671A, “3-[(5-nitro-2-imidazolyl)pyrazol-5-yl]oxamic acid derivatives” (priority 1976, dated 1977):
Converted amounts (≈) assume the structure as drawn. Structures can show the parent of a compound that is named as a salt.

What was measured:
Assay in all cases: Agar dilution susceptibility of anaerobic bacteria (Chart 1)
Format in all cases: cell-based
[1] = test system: Bacteroides fragilis sp. fragilis 112; details: agar dilution, 37° C., Bacteroides fragilis sp. fragilis 112; for MIC: Bacteroides fragilis, 24 h, read-out: 24 Hr. MIC
[2] = test system: Peptostreptococcus anaerobius 1428; details: agar dilution, 37° C., Peptostreptococcus anaerobius 1428; for MIC: Peptostreptococcus anaerobius, 1428, 24 h, read-out: 24 Hr. MIC
[3] = test system: Bacteroides fragilis sp. vulgatis 1563; details: agar dilution, 37° C., Bacteroides fragilis sp. vulgatis 1563; for MIC: Bacteroides fragilis, 24 h, read-out: 24 Hr. MIC
[4] = test system: Bacteroides vulgatis 1211; details: agar dilution, 37° C., Bacteroides vulgatis 1211; for MIC: Bacteroides, 1211, 24 h, read-out: 24 Hr. MIC
[5] = test system: Bacteroides fragilis sp. fragilis 9; details: agar dilution, 37° C., Bacteroides fragilis sp. fragilis 9; for MIC: Bacteroides fragilis, 24 h, read-out: 24 Hr. MIC
[6] = test system: Bacteroides fragilis sp. fragilis 108; details: agar dilution, 37° C., Bacteroides fragilis sp. fragilis 108; for MIC: Bacteroides fragilis, 24 h, read-out: 24 Hr. MIC
[7] = test system: Bacteroides fragilis sp. fragilis 62; details: agar dilution, 37° C., Bacteroides fragilis sp. fragilis 62; for MIC: Bacteroides fragilis, 24 h, read-out: 24 Hr. MIC
[8] = test system: Peptostreptococcus intermedius 1264; details: agar dilution, 37° C., Peptostreptococcus intermedius 1264; for MIC: Peptostreptococcus, 1264, 24 h, read-out: 24 Hr. MIC
[9] = test system: Bacteroides fragilis sp. fragilis 1470; details: agar dilution, 37° C., Bacteroides fragilis sp. fragilis 1470; for MIC: Bacteroides fragilis, 24 h, read-out: 24 Hr. MIC
[10] = test system: Bacteroides melaninogenicus 2736; details: agar dilution, 37° C., Bacteroides melaninogenicus 2736; for MIC: 2736, 24 h, read-out: 24 Hr. MIC
[11] = test system: Clostridium septicum 1128; details: 37° C.; for MIC: Clostridium septicum, 1128, 24 h
Protocol: The susceptibility of anaerobic bacteria, both gram positive and gram negative, to a representative number of the novel compounds of this application was determined using the agar dilution method. The bacteria used were isolated from patients hospitalized at the Indiana Univerisity Medical Center. The isolates were identified in the anaerobe laboratory of the Medical Center by the criteria established by Dowell et al., Laboratory Methods in Anaerobic Bacteriology. Public Health Serv. Publ. NO. 1803 (1968) [Center for Disease Control, Atlanta, Ga.]; and by Smith et al., The Pathogenic Anaerobic Bacteria, pages 96- 136 (1968) [Charles C. Thomas, Publisher, Springfield, Ill.]. All the organisms were maintained in chopped meat glucose medium (Scott Labs) at room temperature.
The method used for the agar dilution tests was based on the studies of Sutter et al., Antimicrob. Ag. Chemother. 3, 188-193 (1973). The strains of anaerobic bacteria were grown in 16×× 120 mm. tubes for 16 to 18 hours in Thioglycolate medium without indicator-- 135C (Becton, Dickinson and Co.), to which was added 5 mcg. of hemin per milliliter prior to autoclaving, plus 1 mg. of sodium bicarbonate and 0.1 mcg. of filter-sterilized menadione per milliliter after autoclaving. The strains were adjusted to the turbidity of the No. 1 McFarland standard in Thioglycolate medium without indicator-- 135C containing an additional 0.13 percent Bacto-agar (Difco). Each strain was then applied to the surface of the petri plate (100 mm× 15 mm.) by means of a replicator.
For the agar dilution studies, two-fold dilutions of the test compounds were prepared in deionized water to which was then added laked sheep blood and filter-sterilized menadione so the concentrations after the agar dilution were 5 percent and 10 mcg./ml. respectively. An equal volume of double strength Brucella agar (Becton, Dickinson and Co.) was mixed with each dilution in a water bath held at 50° C. and then poured onto the petri dishes.
All of the procedures were done inside a plastic glove box, except for the incubation of the growth tubes and the pouring of the plates. After the plates hardened, they were put inside the glove box for a minimum of 2 hours before they were inoculated. Generally, the glove box procedures of Aranki et al., Applied Microbiology 17, 568-576 (1969), were followed, but the following modifications were used. Dry materials were introduced into the glove box by evacuating the lock to 28 inches of mercury and filling once with nitrogen gas, followed by evacuating in the same manner and filling with an 80 percent nitrogen plus 10 percent CO2 plus 10 percent hydrogen gas mixture. Liquid media and agar plates were introduced into the glove box by evacuating the lock to 10 inches of mercury and filling with gas four times. The nitrogen gas was used to fill the lock for the first two cycles of evacuation, with the gas mixture described above used for the final two fillings.
All the plates were incubated at 37° C. in Gas Pak jars (Becton, Dickinson and Co.) containing palladium-coated alumina catalysts (reactivated after each use). The results of the agar dilution tests were read after about 24 hours of incubation. The minimum inhibitory concentration (MIC) was recorded as the lowest concentration of test compound at which there was no growth.
The test compounds are identified by the number of the example describing their preparation. The antibiotics clindamycin (C), and erythromycin (E) were also run simultaneously with the novel compounds of this application,for comparison purposes, and the results are included in Chart 1 below.

[12] = test system: Fusobacterium necrophorum 6054A; details: agar dilution, 37° C., Fusobacterium necrophorum 6054A; for MIC: Fusobacterium necrophorum, 6054A, 24 h, read-out: 24 Hr. MIC
[13] = test system: Bacteroides fragilis sp. fragilis 1877; details: agar dilution, 37° C., Bacteroides fragilis sp. fragilis 1877; for MIC: Bacteroides fragilis, 24 h, read-out: 24 Hr. MIC
[14] = test system: Eubacterium aerofaciens 1235; details: agar dilution, 37° C., Eubacterium aerofaciens 1235; for MIC: Collinsella aerofaciens, 1235, 24 h, read-out: 24 Hr. MIC
[15] = test system: Bacteroides fragilis sp. fragilis 104; details: 24 h; agar dilution, 37° C.; Bacteroides fragilis sp. fragilis 104; read-out: 24 Hr. MIC
[16] = test system: Bacteroides fragilis sp. fragilis 113; details: agar dilution, 37° C., Bacteroides fragilis sp. fragilis 113; for MIC: Bacteroides fragilis, 24 h, read-out: 24 Hr. MIC
[17] = test system: Bacteroides fragilis sp. fragilis 1936B; details: agar dilution, 37° C., Bacteroides fragilis sp. fragilis 1936B; for MIC: Bacteroides fragilis, 24 h, read-out: 24 Hr. MIC

| SMILES | MIC [1] [µg/mL] | MIC [2] [µg/mL] | MIC [3] [µg/mL] | MIC [4] [µg/mL] | MIC [5] [µg/mL] | MIC [6] [µg/mL] | MIC [7] [µg/mL] | MIC [8] [µg/mL] | MIC [9] [µg/mL] | MIC [10] [µg/mL] | MIC [11] [µg/mL] | MIC [12] [µg/mL] | MIC [13] [µg/mL] | MIC [14] [µg/mL] | MIC [15] [µg/mL] | MIC [16] [µg/mL] | MIC [17] [µg/mL] | 24 Hr. MIC [3] [µg/mL] | 24 Hr. MIC [11] [µg/mL] | 24 Hr. MIC [4] [µg/mL] | further results |
| --- | --- | --- | --- | --- | --- | --- | --- | --- | --- | --- | --- | --- | --- | --- | --- | --- | --- | --- | --- | --- | --- |
| CCC[C@@H]1C[C@@H](C(=O)N[C@@H]([C@H]2O[C@H](SC)[C@H](O)[C@@H](O)[C@H]2O)[C@H](C)Cl)N(C)C1 [C, clindamycin, reference compound] | 0.25 (≈ 0.588 µM) | ≤ 0.5 | 0.125 (≈ 0.294 µM) | ≤ 0.5 | 0.125 (≈ 0.294 µM) | 0.125 (≈ 0.294 µM) | 0.25 (≈ 0.588 µM) | 1 (≈ 2.35 µM) | 0.25 (≈ 0.588 µM) | ≤ 0.5 | 8 (≈ 18.8 µM) | ≤ 0.5 | 0.25 (≈ 0.588 µM) | 8 (≈ 18.8 µM) | 0.125 (≈ 0.294 µM) | 0.125 (≈ 0.294 µM) | ≤ 0.5 |  |  |  |  |
| CCOC(=O)C(=O)Nc1c(C#N)c(-c2ncc([N+](=O)[O-])n2C)nn1C [Example 1, N-[4-Cyano-1-methyl-3-(1-methyl-5-nitroimidazol-2-yl)pyrazol-5-yl]oxamic acid, ethyl ester] | 0.125 (≈ 0.36 µM) | ≤ 0.25 |  | ≤ 0.25 | 0.25 (≈ 0.72 µM) | 0.125 (≈ 0.36 µM) |  |  | 0.125 (≈ 0.36 µM) | ≤ 0.25 |  | ≤ 0.25 | 0.25 (≈ 0.72 µM) | 0.5 (≈ 1.44 µM) | 0.25 (≈ 0.72 µM) | 0.25 (≈ 0.72 µM) | ≤ 0.25 | 0.125 | > 128 |  | 24 Hr. MIC [7]: 0.25 µg/mL; 24 Hr. MIC [8]: 16 µg/mL |
| CCOC(=O)C(=O)Nc1c(C#N)c(-c2ncc([N+](=O)[O-])n2C)nn1C [Example 2, N-[4-Cyano-1-methyl-3-(1-methyl-5-nitroimidazol-2-yl)pyrazol-5-yl]oxamic acid, ethyl ester, sodium salt] |  |  |  |  |  |  |  |  |  |  |  |  |  |  |  |  |  |  |  |  | 24 Hr. MIC ([1]; sodium salt): 0.25 µg/mL; 24 Hr. MIC ([2]; sodium salt): ≤ 0.25 µg/mL; 24 Hr. MIC ([3]; sodium salt): 0.5 µg/mL; 24 Hr. MIC ([4]; sodium salt): ≤ 0.25 µg/mL; 24 Hr. MIC ([5]; sodium salt): 0.5 µg/mL; 24 Hr. MIC ([6]; sodium salt): 0.25 µg/mL; 24 Hr. MIC ([7]; sodium salt): 0.125 µg/mL; 24 Hr. MIC ([8]; sodium salt): > 64 µg/mL; 24 Hr. MIC ([9]; sodium salt): 0.25 µg/mL; 24 Hr. MIC ([10]; sodium salt): 0.5 µg/mL; 24 Hr. MIC ([11]; sodium salt): > 64 µg/mL; 24 Hr. MIC ([12]; sodium salt): ≤ 0.25 µg/mL; 24 Hr. MIC ([13]; sodium salt): 0.5 µg/mL; 24 Hr. MIC ([14]; sodium salt): ≤ 0.25 µg/mL; 24 Hr. MIC ([16]; sodium salt): 0.25 µg/mL; 24 Hr. MIC ([17]; sodium salt): ≤ 0.25 µg/mL |
| Cn1nc(-c2ncc([N+](=O)[O-])n2C)c(C#N)c1NC(=O)C(=O)NN [Example 6, 5-[4-Cyano-1-methyl-3-(1-methyl-5-nitroimidazol-2-yl)pyrazol5-yl]semioxamazide] | 0.5 (≈ 1.5 µM) | ≤ 0.25 | 0.125 (≈ 0.375 µM) |  | 0.25 (≈ 0.75 µM) | 0.5 (≈ 1.5 µM) | 0.5 (≈ 1.5 µM) | 32 (≈ 96 µM) | 0.25 (≈ 0.75 µM) | ≤ 0.25 | > 128 | ≤ 0.25 | 0.5 (≈ 1.5 µM) |  | 0.25 (≈ 0.75 µM) | 0.25 (≈ 0.75 µM) |  |  |  | ≤ 0.25 | 24 Hr. MIC [14]: 0.5 µg/mL; 24 Hr. MIC [17]: ≤ 0.25 µg/mL |
| Cn1nc(-c2ncc([N+](=O)[O-])n2C)c(C#N)c1NC(=O)C(=O)c1ccccc1 [Example 10, N-[4-cyano-1-methyl-3-(1-methyl-5-nitroimidazol-2-yl)pyrazol-5-yl]-2-phenylglyoxylamide] | ≤ 0.03 |  |  |  | ≤ 0.03 | ≤ 0.03 | ≤ 0.03 | 64 (≈ 169 µM) | ≤ 0.03 |  |  | 0.5 (≈ 1.32 µM) | ≤ 0.03 |  | ≤ 0.03 |  |  | 0.06 | 1.0 | 4 | 24 Hr. MIC [2]: 1.0 µg/mL; 24 Hr. MIC [10]: 2 µg/mL; 24 Hr. MIC [14]: 2 µg/mL; 24 Hr. MIC [16]: ≤ 0.03 µg/mL; 24 Hr. MIC [17]: 2 µg/mL |
